In patent US8497255B2, “Phosphonic acids as S1P receptor modulators” (Allergan, Inc., priority 2010, dated 2013):

Molecular target: T1, human S1P1 receptor (Homo sapiens, UniProt P21453)
T1 construct: expressed in transfected cells; membranes used
Assay: GTP γ35S binding assay for S1P1 activity
Type: biochemical
Details: activity potency, S1P1 receptor from GTP γ35S binding; membranes, 30 min at 25° C.
Description: Compounds were synthesized and tested for S1P1 activity using the GTP γ^35S binding assay. These compounds may be assessed for their ability to activate or block activation of the human S1P1 receptor in cells stably expressing the S1P1 receptor.
GTP γ^35S binding was measured in the medium containing (mM) HEPES 25, pH 7.4, MgCl2 10, NaCl 100, dithitothreitol 0.5, digitonin 0.003%, 0.2 nM GTP γ^35S, and 5 μg membrane protein in a volume of 150 μl. Test compounds were included in the concentration range from 0.08 to 5,000 nM unless indicated otherwise. Membranes were incubated with 100 μM 5′-adenylylimmidodiphosphate for 30 min, and subsequently with 10 μM GDP for 10 min on ice. Drug solutions and membrane were mixed, and then reactions were initiated by adding GTP γ^35S and continued for 30 min at 25° C. Reaction mixtures were filtered over Whatman GF/B filters under vacuum, and washed three times with 3 mL of ice-cold buffer (HEPES 25, pH7.4, MgCl2 10 and NaCl 100). Filters were dried and mixed with scintillant, and counted for ^35S activity using a β-counter. Agonist-induced GTP γ^35S binding was obtained by subtracting that in the absence of agonist. Binding data were analyzed using a non-linear regression method. In case of antagonist assay, the reaction mixture contained 10 nM S1P in the presence of test antagonist at concentrations ranging from 0.08 to 5000 nM.

T1 sequence (P21453 whole entry): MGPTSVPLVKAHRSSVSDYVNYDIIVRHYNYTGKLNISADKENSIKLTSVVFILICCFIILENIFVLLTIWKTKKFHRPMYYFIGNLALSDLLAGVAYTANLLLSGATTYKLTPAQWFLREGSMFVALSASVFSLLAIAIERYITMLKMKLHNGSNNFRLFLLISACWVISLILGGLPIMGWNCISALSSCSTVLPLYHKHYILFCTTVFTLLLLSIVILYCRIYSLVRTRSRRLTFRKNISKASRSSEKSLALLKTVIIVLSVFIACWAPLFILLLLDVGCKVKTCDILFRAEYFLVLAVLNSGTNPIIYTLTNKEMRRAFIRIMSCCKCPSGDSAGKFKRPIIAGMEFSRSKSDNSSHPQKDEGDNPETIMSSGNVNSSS

EC50	SMILES
3.1 nM	CC(C)Oc1ccc(-c2nc(-c3ccc(CNCCCP(=O)(O)O)cc3)no2)cc1Br [Compound 2, [3-({4-[5-(3-bromo-4-isopropoxyphenyl)-1,2,4-oxadiazol-3-yl]benzyl}amino)propyl]phosphonic acid]
1.78 nM	CC(C)Cc1ccc(-c2nc(-c3ccc(CNCCCP(=O)(O)O)cc3)no2)cc1 [Compound 3, (3-{4-[5-(4-Isobutyl-phenyl)-[1,2,4]oxadiazol-3-yl]-benzylamino}-propyl)-phosphonic acid]
3.14 nM	CC(C)Oc1ccc(-c2nc(-c3ccc(CNCCCP(=O)(O)O)cc3)no2)cc1C(F)(F)F [Compound 1, {3-[(4-{5-[4-isopropoxy-3-(trifluoromethyl)phenyl]-1,2,4-oxadiazol-3-yl}benzyl)amino]propyl}phosphonic acid]
